Source: the NIST ThermoML archive (doi:10.1016/j.tca.2016.11.008)
Numbers after ± are expanded uncertainties.

Assay: xn = mol fraction of the nth substance listed
Settings: 101.3 kPa, Liquid, Vibrating tube method

mass density (303.15 K, x1 = 0.667) | mass density (313.15 K, x1 = 0.667) | mass density (323.15 K, x1 = 0.667) | mass density (333.15 K, x1 = 0.667) | mass density (343.15 K, x1 = 0.667) | mass density (353.15 K, x1 = 0.667) | mass density (303.15 K, x2 = 0.333) | mass density (313.15 K, x2 = 0.333) | mass density (323.15 K, x2 = 0.333) | mass density (333.15 K, x2 = 0.333) | mass density (343.15 K, x2 = 0.333) | mass density (353.15 K, x2 = 0.333) | SMILES
1239.7 ± 3.4 kg/m3 | 1234.6 ± 3.3 kg/m3 | 1229.4 ± 3.3 kg/m3 | 1224.3 ± 3.3 kg/m3 | 1219.2 ± 3.3 kg/m3 | 1214 ± 3.3 kg/m3 | – | – | – | – | – | – | C[N+](C)(C)CCO.[Cl-] [choline chloride] + O=C[C@H](O)[C@@H](O)[C@H](O)[C@H](O)CO
– | – | – | – | – | – | 1125.4 ± 3.1 kg/m3 | 1118.9 ± 3.1 kg/m3 | 1112.5 ± 3 kg/m3 | 1106.2 ± 3 kg/m3 | 1099.8 ± 3 kg/m3 | 1093.5 ± 3 kg/m3 | OCCOCCOCCO [triethylene glycol] + C[N+](C)(C)CCO.[Cl-]
